Drawing on patent US20240270762A1, “PENICILLIN-BINDING PROTEIN INHIBITORS” (priority 2021, published 2024), this text covers MIC and IC50 for 11 compounds.

Values after ≈ are worked out from the molar mass of the structure shown. Like-named read-outs stand apart in the source and are kept apart here.

The test system of one experiment is N. gonorrhoeae WHO Q. In words: Liquid broth MIC in Fastidious broth. Particulars: Neisseria gonorrhoeae.
Experiment [1] deals with T1, PBP1a from Acinetobacter baumannii (ATCC 19606) (Acinetobacter baumannii, UniProt A0ABX6CK30).
T1 sequence (A0ABX6CK30 1-851): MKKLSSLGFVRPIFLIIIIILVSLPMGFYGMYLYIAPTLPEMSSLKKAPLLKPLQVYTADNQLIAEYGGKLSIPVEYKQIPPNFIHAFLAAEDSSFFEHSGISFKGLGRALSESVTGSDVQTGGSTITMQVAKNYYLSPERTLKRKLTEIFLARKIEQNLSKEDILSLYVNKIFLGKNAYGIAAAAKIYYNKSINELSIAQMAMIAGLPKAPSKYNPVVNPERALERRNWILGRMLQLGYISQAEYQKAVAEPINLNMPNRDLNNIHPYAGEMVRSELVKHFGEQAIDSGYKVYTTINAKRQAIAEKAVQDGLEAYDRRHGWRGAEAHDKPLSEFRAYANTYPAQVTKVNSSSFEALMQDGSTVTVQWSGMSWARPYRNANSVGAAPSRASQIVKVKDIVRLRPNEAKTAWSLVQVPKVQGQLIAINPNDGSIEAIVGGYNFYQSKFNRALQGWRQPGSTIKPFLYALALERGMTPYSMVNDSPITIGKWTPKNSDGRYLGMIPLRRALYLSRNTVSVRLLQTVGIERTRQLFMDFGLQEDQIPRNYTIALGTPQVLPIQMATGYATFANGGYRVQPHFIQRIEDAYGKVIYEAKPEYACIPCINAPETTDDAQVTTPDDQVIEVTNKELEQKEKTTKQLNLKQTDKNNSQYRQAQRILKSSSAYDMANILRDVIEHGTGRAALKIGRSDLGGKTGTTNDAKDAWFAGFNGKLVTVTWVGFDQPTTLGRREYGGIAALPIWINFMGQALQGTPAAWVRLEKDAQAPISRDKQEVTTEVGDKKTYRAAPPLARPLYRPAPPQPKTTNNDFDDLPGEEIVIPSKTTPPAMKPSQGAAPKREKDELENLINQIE
In words: Bocillin-FL fluorescence polarization competition binding, A. baumannii PBP1a. The note with it: fluorescence polarization competition binding assay using Bocillin-FL; read-out: A. baumannii PBP1a Potency. The essentials:
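Purified PBPs pre-incubated with inhibitor (E. coli PBP3 1.5 μM, 30 min; P. aeruginosa PBP3 0.75 μM, A. baumannii PBP1a 1 μM and PBP3 0.2 μM, 15 min), then Bocillin-FL 0.1 μM (0.05 μM for PBP1a) added; FP read up to 60 min. EC50 = concentration halving bound Bocillin-FL.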

The subject of another experiment is A. baumannii CDC-0036. In words: microbe, parasite or virus in culture. It is filed as cell-based. The note with it: Acinetobacter baumannii, CDC0036, read-out: MIC, A. baumannii CDC-0036.
A further experiment relates to P. aeruginosa CDC-0054. In words: microbe, parasite or virus in culture. The note with it: Pseudomonas aeruginosa, CDC0054, read-out: Minimum inhibitory concentration, P. aeruginosa CDC-0054. It is filed as cell-based.
The subject of another experiment is P. aeruginosa ATCC 35151. Description: microbe, parasite or virus in culture. It is filed as cell-based. The note with it: Pseudomonas aeruginosa, ATCC35151, read-out: Minimum inhibitory concentration, P. aeruginosa ATCC 35151.
The subject of the next experiment is B. pseudomallei Bp82. Description: microbe, parasite or virus in culture. It is filed as cell-based. Particulars: Burkholderia pseudomallei, BP82, read-out: Minimum inhibitory concentration, B. pseudomallei Bp82.
Where [2] appears, read: read-out: Minimum Inhibitory Concentration (MIC), N. gonorrhoeae WHO Q.

As for `O=C(NCCCN1CCN(C(=O)NC(C(=O)N[C@H]2Cc3ccc(F)c(C(=O)O)c3OB2O)c2cc(F)c(O)c(O)c2Cl)C(=O)C1=O)c1ccc(O)cc1` (stereo partly drawn) [Example 203, (3R)-3-(2-(2-chloro-5-fluoro-3,4-dihydroxyphenyl)-2-(4-(3-(4-hydroxybenzamido)propyl)-2,3-dioxopiperazine-1-carboxamido)acetamido)-7-fluoro-2-hydroxy-3,4-dihydro-2H-benzo[e][1,2]oxaborinine-8-carboxylic acid], the MIC with N. gonorrhoeae WHO Q (setting [2]) was 16 to 32 µg/mL (≈ 21.1 to 42.1 µM); with A. baumannii CDC-0036 it was below 1 µg/mL; with P. aeruginosa CDC-0054, below 1 µg/mL; in the experiment on P. aeruginosa ATCC 35151, below 1 µg/mL; with B. pseudomallei Bp82, below 1 µg/mL. For the same compound, the IC50 in experiment [1] was above 250 µM.
With `O=C(NCCCN1CCN(C(=O)NC(C(=O)N[C@H]2Cc3ccc(F)c(C(=O)O)c3OB2O)c2cc(F)c(O)c(O)c2Cl)C(=O)C1=O)c1cccc(O)c1` (stereo partly drawn) [Example 204, (3R)-3-(2-(2-chloro-5-fluoro-3,4-dihydroxyphenyl)-2-(4-(3-(3-hydroxybenzamido)propyl)-2,3-dioxopiperazine-1-carboxamido)acetamido)-7-fluoro-2-hydroxy-3,4-dihydro-2H-benzo[e][1,2]oxaborinine-8-carboxylic acid], the MIC in the experiment with N. gonorrhoeae WHO Q (setting [2]) is above 64 µg/mL; in the experiment on A. baumannii CDC-0036, 2 to 4 µg/mL (≈ 2.63 to 5.26 µM); in the experiment on P. aeruginosa CDC-0054, below 1 µg/mL; with P. aeruginosa ATCC 35151, below 1 µg/mL; in the experiment on B. pseudomallei Bp82, below 1 µg/mL.
Regarding `O=C(NCCCN1CCN(C(=O)NC(C(=O)N[C@H]2Cc3ccc(F)c(C(=O)O)c3OB2O)c2cc(F)c(O)c(O)c2Cl)C(=O)C1=O)c1ccncc1` (stereo partly drawn) [Example 205, (3R)-3-(2-(2-chloro-5-fluoro-3,4-dihydroxyphenyl)-2-(4-(3-(isonicotinamido)propyl)-2,3-dioxopiperazine-1-carboxamido)acetamido)-7-fluoro-2-hydroxy-3,4-dihydro-2H-benzo[e][1,2]oxaborinine-8-carboxylic acid], the MIC in the experiment with N. gonorrhoeae WHO Q (setting [2]) is 16 to 32 µg/mL (≈ 21.5 to 43 µM); in the experiment with A. baumannii CDC-0036, below 1 µg/mL; with P. aeruginosa CDC-0054 it was below 1 µg/mL; with P. aeruginosa ATCC 35151, below 1 µg/mL; with B. pseudomallei Bp82, below 1 µg/mL. Also, in experiment [1], the IC50 is above 250 µM.
Regarding `CN(CCN1CCN(C(=O)N[C@@H](C(=O)N[C@H]2Cc3ccc(F)c(C(=O)O)c3OB2O)c2cc(F)c(O)c(O)c2Cl)C(=O)C1=O)Cc1cncc(O)c1` [Example 208, (R)-3-((R)-2-(2-chloro-5-fluoro-3,4-dihydroxyphenyl)-2-(4-(2-(((5-hydroxypyridin-3-yl)methyl)(methyl)amino)ethyl)-2,3-dioxopiperazine-1-carboxamido)acetamido)-7-fluoro-2-hydroxy-3,4-dihydro-2H-benzo[e][1,2]oxaborinine-8-carboxylic acid], the MIC is 16 to 32 µg/mL (≈ 21.4 to 42.8 µM) with N. gonorrhoeae WHO Q (setting [2]); 2 to 4 µg/mL (≈ 2.68 to 5.36 µM) with A. baumannii CDC-0036; 2 to 4 µg/mL (≈ 2.68 to 5.36 µM) with P. aeruginosa CDC-0054; below 1 µg/mL in the experiment on P. aeruginosa ATCC 35151; below 1 µg/mL with B. pseudomallei Bp82.
Turning to `CN(CCN1CCN(C(=O)N[C@@H](C(=O)N[C@H]2Cc3ccc(F)c(C(=O)O)c3OB2O)c2cc(F)c(O)c(O)c2Cl)C(=O)C1=O)Cc1ccc(N)nc1` [Example 209, (R)-3-((R)-2-(4-(2-(((6-aminopyridin-3-yl)methyl)(methyl)amino)ethyl)-2,3-dioxopiperazine-1-carboxamido)-2-(2-chloro-5-fluoro-3,4-dihydroxyphenyl)acetamido)-7-fluoro-2-hydroxy-3,4-dihydro-2H-benzo[e][1,2]oxaborinine-8-carboxylic acid], the MIC in the experiment on N. gonorrhoeae WHO Q (setting [2]) is 16 to 32 µg/mL (≈ 21.5 to 42.9 µM); in the experiment on A. baumannii CDC-0036 it was 2 to 4 µg/mL (≈ 2.68 to 5.36 µM); with P. aeruginosa CDC-0054 it was 2 to 4 µg/mL (≈ 2.68 to 5.36 µM); in the experiment on P. aeruginosa ATCC 35151, below 1 µg/mL; in the experiment with B. pseudomallei Bp82, below 1 µg/mL. Moreover, in experiment [1], the IC50 is above 250 µM.
For `O=C(NCCCN1CCN(C(=O)N[C@@H](C(=O)N[C@H]2Cc3ccc(F)c(C(=O)O)c3OB2O)c2cc(F)c(O)c(O)c2Cl)C(=O)C1=O)c1cccnc1` [Example 210, (R)-3-((R)-2-(2-chloro-5-fluoro-3,4-dihydroxyphenyl)-2-(4-(3-(nicotinamido)propyl)-2,3-dioxopiperazine-1-carboxamido)acetamido)-7-fluoro-2-hydroxy-3,4-dihydro-2H-benzo[e][1,2]oxaborinine-8-carboxylic acid], the MIC is above 64 µg/mL in the experiment with N. gonorrhoeae WHO Q (setting [2]); 2 to 4 µg/mL (≈ 2.69 to 5.37 µM) with A. baumannii CDC-0036; below 1 µg/mL in the experiment with P. aeruginosa CDC-0054; below 1 µg/mL in the experiment on P. aeruginosa ATCC 35151; below 1 µg/mL in the experiment with B. pseudomallei Bp82. The IC50 in experiment [1] was above 250 µM.
Regarding `O=C(NCCCN1CCN(C(=O)NC(C(=O)N[C@H]2Cc3ccc(F)c(C(=O)O)c3OB2O)c2cc(F)c(O)c(O)c2Cl)C(=O)C1=O)c1nccs1` (stereo partly drawn) [Example 211, (3R)-3-(2-(2-chloro-5-fluoro-3,4-dihydroxyphenyl)-2-(2,3-dioxo-4-(3-(thiazole-2-carboxamido)propyl)piperazine-1-carboxamido)acetamido)-7-fluoro-2-hydroxy-3,4-dihydro-2H-benzo[e][1,2]oxaborinine-8-carboxylic acid], the MIC with N. gonorrhoeae WHO Q (setting [2]) was above 64 µg/mL; with A. baumannii CDC-0036, 2 to 4 µg/mL (≈ 2.66 to 5.33 µM); in the experiment with P. aeruginosa CDC-0054 it was 2 to 4 µg/mL (≈ 2.66 to 5.33 µM); in the experiment on P. aeruginosa ATCC 35151, below 1 µg/mL; with B. pseudomallei Bp82, below 1 µg/mL. In addition, the IC50 in experiment [1] is above 250 µM.
For `O=C(O)c1c(F)ccc2c1OB(O)[C@@H](NC(=O)C(NC(=O)N1CCN(CCCNC(=O)[C@@H]3CCCN3)C(=O)C1=O)c1cc(F)c(O)c(O)c1Cl)C2` (stereo partly drawn) [Example 212, (3R)-3-(2-(2-chloro-5-fluoro-3,4-dihydroxyphenyl)-2-(2,3-dioxo-4-(3-((S)-pyrrolidine-2-carboxamido)propyl)piperazine-1-carboxamido)acetamido)-7-fluoro-2-hydroxy-3,4-dihydro-2H-benzo[e][1,2]oxaborinine-8-carboxylic acid], the MIC in the experiment on N. gonorrhoeae WHO Q (setting [2]) was above 64 µg/mL; with A. baumannii CDC-0036, 8 to 16 µg/mL (≈ 10.9 to 21.7 µM); in the experiment on P. aeruginosa CDC-0054, 8 to 16 µg/mL (≈ 10.9 to 21.7 µM); in the experiment on P. aeruginosa ATCC 35151 it was below 1 µg/mL; with B. pseudomallei Bp82 it was below 1 µg/mL. Also, the IC50 in experiment [1] is above 250 µM.
`O=C(NCCCN1CCN(C(=O)NC(C(=O)N[C@H]2Cc3ccc(F)c(C(=O)O)c3OB2O)c2cc(F)c(O)c(O)c2Cl)C(=O)C1=O)Nc1cccnc1` (stereo partly drawn) [Example 213, (3R)-3-(2-(2-chloro-5-fluoro-3,4-dihydroxyphenyl)-2-(2,3-dioxo-4-(3-(3-(pyridin-3-yl)ureido)propyl)piperazine-1-carboxamido)acetamido)-7-fluoro-2-hydroxy-3,4-dihydro-2H-benzo[e][1,2]oxaborinine-8-carboxylic acid]: the MIC with N. gonorrhoeae WHO Q (setting [2]) was above 64 µg/mL; in the experiment on A. baumannii CDC-0036, 2 to 4 µg/mL (≈ 2.63 to 5.26 µM); with P. aeruginosa CDC-0054, 2 to 4 µg/mL (≈ 2.63 to 5.26 µM); in the experiment with P. aeruginosa ATCC 35151, below 1 µg/mL; in the experiment on B. pseudomallei Bp82 it was below 1 µg/mL. Besides, in experiment [1], the IC50 was above 250 µM.
For the compound `O=C(NCCN1CCN(C(=O)NC(C(=O)N[C@H]2Cc3ccc(F)c(C(=O)O)c3OB2O)c2cc(F)c(O)c(O)c2Cl)C(=O)C1=O)c1ccc(O)cc1` (stereo partly drawn) [Example 214, (3R)-3-(2-(2-chloro-5-fluoro-3,4-dihydroxyphenyl)-2-(4-(2-(4-hydroxybenzamido)ethyl)-2,3-dioxopiperazine-1-carboxamido)acetamido)-7-fluoro-2-hydroxy-3,4-dihydro-2H-benzo[e][1,2]oxaborinine-8-carboxylic acid], the MIC in the experiment with N. gonorrhoeae WHO Q (setting [2]) was above 64 µg/mL; in the experiment on A. baumannii CDC-0036 it was 8 to 16 µg/mL (≈ 10.7 to 21.5 µM); with P. aeruginosa CDC-0054, 2 to 4 µg/mL (≈ 2.68 to 5.36 µM); in the experiment with P. aeruginosa ATCC 35151, below 1 µg/mL; in the experiment with B. pseudomallei Bp82, 2 to 4 µg/mL (≈ 2.68 to 5.36 µM). In experiment [1], the IC50 was above 250 µM.
Consider `O=C(NCCN1CCN(C(=O)NC(C(=O)N[C@H]2Cc3ccc(F)c(C(=O)O)c3OB2O)c2cc(F)c(O)c(O)c2Cl)C1=O)Nc1cccc(O)c1` (stereo partly drawn) [Example 249, (3R)-3-(2-(2-chloro-5-fluoro-3,4-dihydroxyphenyl)-2-(3-(2-(3-(3-hydroxyphenyl)ureido)ethyl)-2-oxoimidazolidine-1-carboxamido)acetamido)-7-fluoro-2-hydroxy-3,4-dihydro-2H-benzo[e][1,2]oxaborinine-8-carboxylic acid], for which the MIC in the experiment with N. gonorrhoeae WHO Q (read-out: Minimum Inhibitory Concentration, WHO Q) was above 64 µg/mL; in the experiment with A. baumannii CDC-0036, 2 to 4 µg/mL (≈ 2.73 to 5.46 µM); with P. aeruginosa CDC-0054 it was 2 to 4 µg/mL (≈ 2.73 to 5.46 µM); in the experiment with P. aeruginosa ATCC 35151, below 1 µg/mL; in the experiment with B. pseudomallei Bp82, below 1 µg/mL.
